These results are taken from patent US8563552B2, “Whitening agent and skin external preparation” (Shiseido Company Ltd., priority 2008, dated 2013).

Some results are limits rather than exact numbers.

One experiment has as its system Mouse B16 melanoma cells. In words: Melanin production inhibition test. In kind it is cell-based. As to conditions: 72 h; mouse B16 melanoma cells, three days after addition; minimum non-cytotoxic final concentration at which ratio of melanin amount was 80% or less; read-out: Inhibitory effect on melanin production. As to the method: A test for melanin production inhibition by the compounds of the formula (1) was conducted. The test method is as follows.
Melanin Production Inhibition Test
(1) Inoculation of Cells and Addition of Test Substances
Mouse B16 melanoma cells were inoculated in a six well plate at 100,000 cells/well. The next day, test substance solutions (solvent: DMSO) were added.
(2) Cell Proliferation Test
Three days after the addition of the test substance solution, the medium was removed by aspiration. Then 1 ml of EMEM medium containing 10% Alamar Blue solution was added, and a reaction was allowed to proceed at 37° C. After 30 minutes, 100 μL of the reaction mixture was transferred to a 96 well plate and fluorescence was measured at an excitation wavelength of 544 nm and a measurement wavelength of 590 nm. Using the value thus measured as a relative value of cell count, a ratio of the cell count (% cell count) of the test substance-added group to the test substance-absent group (group in which only the solvent was added) was calculated. The higher the % cell count, the lower the cytotoxicity. It was determined that a compound having the % cell count of 80% or more was non-cytotoxic, and that a compound having the % cell count of less than 80% was cytotoxic.
(3) Quantification of Melanin
The cells after the cell proliferation test were washed with PBS three times, and then lysed by addition of 200 μL of 1M NaOH to measure an absorbance at 475 nm. Using the value thus measured as a: value of the melanin amount, a ratio of the melanin amount (%) of the test substance-added group to the test substance-absent group (group in which only the solvent was added) was calculated. The lower the ratio of the melanin amount, the higher the melanin production-inhibitory effect. […] The inhibitory effect on melanin production was evaluated according to the following criteria.
⊚: the minimum concentration for inhibition of melanin production was 1 ppm or less.
◯: the minimum concentration for inhibition of melanin production was more than 1 ppm and 10 ppm or less.
As to `Cc1cc(C)n(-c2ccccc2)n1` [Compound 33, 1-phenyl-3,5-dimethylpyrazole], the minimal effective concentration was 1 to 10 µg/mL.
With `Cc1ccnc(-n2nc(C)cc2C)c1` [Compound 40, 1-(4-methylpyridin-2-yl)-3,5-dimethylpyrazole], the minimal effective concentration lay in the range of 1 to 10 µg/mL.
As for `Cc1cn(-c2nc(C)cc(C)n2)cn1` [Compound 42], the minimal effective concentration is not above 1 µg/mL.
On to `CNc1cc(C)nc(-n2nc(C)cc2C)n1` [Compound 7], for which the minimal effective concentration is not above 1 µg/mL.
For `Cc1cc(C)n(-c2ccc(C)c(C)c2)n1` [Compound 34], the minimal effective concentration is not above 1 µg/mL.
Take `Cc1ccnc(-n2nc(C)cc2C)n1` [Compound 22, 1-(4-methylpyrimidin-2-yl)-3,5-dimethylpyrazole]: the minimal effective concentration was not above 1 µg/mL.
Same read-out and setting: with `Cc1cnn(-c2nc(C)cc(C)n2)c1` [Compound 23] the figure was not above 1 µg/mL.
For `Cc1cccc(-n2nc(C)cc2C)c1` [Compound 36], the minimal effective concentration is not above 1 µg/mL.
The same measure, in the same setting: the same measure for `COc1cc(OC)nc(-n2nc(C)cc2C)n1` [Compound 13]: not above 1 µg/mL; for `Cc1cc(C)nc(-n2ccnc2C)n1` [Compound 41]: not above 1 µg/mL; for `CCc1c(C)nn(-c2nc(C)cc(C)n2)c1O` [Compound 8]: not above 1 µg/mL.
Take `Cc1cc(N(C)C)nc(-n2nc(C)cc2C)n1` [Compound 14]: the minimal effective concentration was not above 1 µg/mL.
Still for that read-out and setting: with `Cc1cc(S)nc(-n2nc(C)cc2C)n1` [Compound 6] the figure was not above 1 µg/mL; with `Cc1cc(C)nc(-n2ncc3c2/C(=C/c2ccc(Cl)cc2)CC3)n1` [Compound 30], not above 1 µg/mL; with `Cc1cc(C)nc(N2CC(C)CC(C)C2)n1` (centres unmarked) [Compound 45, N-(4,6-dimethylpyrimidin-2-yl)-3,5-dimethylpiperidine], 1 to 10 µg/mL.
As for `Cc1cc(C)nc(-n2cccn2)n1` [Compound 12, 2-(pyrazol-1-yl)-4,6-dimethylpyrimidine], the minimal effective concentration fell in the range of 1 to 10 µg/mL.
For `Cc1cc(C)nc(-n2nc(C)cc2O)n1` [Compound 11], the minimal effective concentration fell in the range of 1 to 10 µg/mL.
Still for that read-out and setting: with `Cc1cc(N2CCOCC2)nc(-n2nc(C)cc2C)n1` [Compound 2] the figure was not above 1 µg/mL.
On the same count and under the same terms, the same measure for `Cc1cc(C)n(-c2ncccn2)n1` [Compound 4, 1-(pyrimidin-2-yl)-3,5-dimethylpyrazole]: not above 1 µg/mL; for `Cc1cc(C)cc(-n2nc(C)cc2C)c1` [Compound 35]: not above 1 µg/mL; for `Cc1cc(N)n(-c2ncccn2)n1` [Compound 3]: 1 to 10 µg/mL.
On the same count and under the same terms, the same measure for `Cc1cc(C)nc(-n2nc(C)cc2N)n1` [Compound 1]: not above 1 µg/mL.
In the case of `Cc1cc(C)nc(-n2ccc(C)n2)n1` [Compound 18], the minimal effective concentration is not above 1 µg/mL.
With `Cc1cc(N2CCOCC2)nc(-n2nc(C)c(C)c2C)n1` [Compound 20], the minimal effective concentration was not above 1 µg/mL.
The same measure, in the same setting: with `CCc1cnc(-n2nc(C)cc2C)nc1` [Compound 21, 1-(5-ethylpyrimidin-2-yl)-3,5-dimethylpyrazole] the figure was not above 1 µg/mL; with `Cc1cc(C)nc(-n2nccc2C)n1` [Compound 17], not above 1 µg/mL.

The same experiment, now with this note: minimum concentration at which an inhibitory effect on melanin production was significantly exhibited in melanoma B16 cells.
For `CNc1cc(C)nc(-n2nc(C)cc2C)n1` [Compound 7], the “Minimum concentration (%)” value is reported as 3 × 10^−6%.
Take `Cc1cc(N(C)C)nc(-n2nc(C)cc2C)n1` [Compound 14]: the “Minimum concentration (%)” value is 3 × 10^−6%.
As for `OC[C@H]1O[C@@H](Oc2ccc(O)cc2)[C@H](O)[C@@H](O)[C@@H]1O` [Arbutin, 4-hydroxyphenyl-β-D-glucopyranoside, reference compound], the “Minimum concentration (%)” value was 5 × 10^−4%.
